{"source": "patent US20240109972A1", "about": "“ANTIBODY AND TAXANE COMBINATION THERAPY” (Genmab A/S, priority 2020, published 2024)", "test_system": "effector memory CD8 T cells (CD8+CD45RA−CCR7− T cells)", "assay": "Proliferating (Ki67+) effector memory CD8 T cells in peripheral blood of patients (flow cytometry)", "settings": "human, in vivo", "description": "100 μL of whole blood was added to fluorochrome-conjugated monoclonal antibodies that bind specifically to cell surface antigens: CD45RA-FITC (clone LEU-18, BD Biosciences cat. no. 335039), CCR7-BV510 (clone 3D12, BD Biosciences, cat. no. 563449), CD8-PerCP-Cy5.5 (clone RPA-T8, BD Biosciences, cat. no. 560662). After incubation on ice, the stained samples were treated with FACS Lysing Solution (BD Biosciences, Catalog No 349202) to lyse erythrocytes. Excess antibody and cell debris were removed by washing with Stain Buffer (BD Biosciences, cat. no. 554656). Following lyse/wash, cells were fixed and permeabilized by incubation with Permeabilizing Solution 2 buffer (BD Biosciences, cat. no. 340973). Next, cells were washed and resuspended in Stain Buffer and incubated on ice with antibody to Ki67 (BV421 B56, BD Biosciences, cat. no. 562899) to detect proliferating cells. After incubation, excess antibody was removed by washing with Stain Buffer. Cells were resuspended in Stain Buffer and acquired on a BD FACSCanto™ II flow cytometer (Becton Dickinson) within 1 hour of staining.", "data": [{"substance": "GEN1046: PD-L1×4-1BB bispecific antibody: PD-L1-547-FEAL combined with CD137-009-HC7LC2-FEAR (SEQ ID NOs: 1, 5, 21, 19; 8, 12, 22, 20)", "values": [{"measurement": "Cohort with maximal and more consistent modulation of proliferating CD8+ effector memory T cells", "result": 80, "unit": "mg"}]}]}
